# Assay: Hyperinsulinemic-euglycemic clamp in palmitoleate-infused mice
# Type: in vivo
# Source text: FIGS. 7A-7G show data on the regulation of insulin signaling and glucose metabolism by palmitoleate. FIG. 7A is the basal and insulin-stimulated phosphorylation of insulin receptor (IR), insulin receptor substrate-1 (IRS-1) and -2 (IRS-2) and AKT in liver of mice infused with vehicle (Veh), TG:palmitoleate (C16:1n7) or TG:palmitate (C16). Representative blots are shown and quantifications on the right are averaged results of three mice in each treatment group. […] Representative blots are shown and quantifications on the right are averaged results of three mice in each treatment group.
# FIG. 7G is the regulation of systemic metabolic responses by adipose-derived lipid hormones (Lipokines). In parallel with a variety of adipokines, specific lipids released from adipocytes in response to physiological stimuli act at remote sites including liver and muscle and regulate systemic lipid and carbohydrate metabolism. Lipid chaperones negatively regulate one of these lipokines, C16:1n7 (palmitoleate), and in the absence of these FABPs, strong flux of palmitoleate from adipose tissue to liver and muscle results in improved metabolic responses.
# To investigate whether the increased insulin signaling by elevated serum palmitoleate can be translated into improved glucose metabolism, hyperinsulinemic-euglycemic clamp studies were performed on mice infused with either vehicle or palmitoleate. To enable delivery of lipid at a rate that is compatible with clamp studies, fatty acid:palmitoleate was used instead of TG:palmitoleate. That palmitoleate enhanced both muscle and liver insulin signaling in this setting was confirmed by examining insulin stimulated activation of insulin receptor and AKT (FIG. 21). […] Instead, the increased glucose infusion rate in these mice was driven by enhanced whole body glucose metabolism (FIG. 7F), confirming that the increased insulin signaling by palmitoleate infusion can be directly reflected as improved glycemic control in conscious mice.
# INTRALIPID® fatty acid lipid infusion solution with 2 mM triglycerides:palmitate or palmitoleate were prepared using a previously described protocol with modifications (Stein et al., 1997). Briefly, lipids were dissolved in a solvent containing 5% glycerol and 0.72% phosphocholine in 0.9% saline, heated at 80° C. for 10 min, and then sonicated 1 min four times. For TG:palmitoleate, the heating was omitted to avoid oxidization of the lipids. Lipids stay in suspension for a week, so to prevent clogging the preparations must be vortexed well before loading the syringe and tubing. […] Serum FFAs were determined using a commercial kit (Wako Chem.). […]
# [1] = hyperinsulinemic-euglycemic clamp, vs vehicle
structure (smiles),measurement,setting,value
"CCCCCC/C=C\CCCCCCCC(=O)O [palmitoleate, C16:1n7-palmitoleate]",glucose infusion rate to maintain euglycemia,[1],significantly higher
same,whole body glucose metabolism (glucose disposal rate),[1],enhanced
same,clamped hepatic glucose production,"hyperinsulinemic-euglycemic clamp, vs vehicle controls",Neither basal nor clamped hepatic glucose production was significantly changed
same,basal hepatic glucose production,vs vehicle controls,Neither basal nor clamped hepatic glucose production was significantly changed
